Tests used:
Assay type in all cases: in vivo
transplanted rice plant = assay: Test Example 1: effect on crop, application before weed generation in submerged conditions (symbol a); details: application herbicide amount 320 g/ha
Outline: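 Alluvial soil pots flooded to 4 cm water, sown with Echinochloa oryzacola, Scirpus juncoides and Monochoria vaginalis, then transplanted with 2.5 leaf stage rice seedlings; pre-emergence application. Greenhouse 25° C. to 30° C.; scored 0–5 by herbicidal ratio 3 weeks after application.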

Scirpus juncoides = assay: Test Example 2: herbicidal activity, application during weed generation in submerged conditions (symbol B); details: Table 23; application herbicide amount 320 g/ha; grade 0-5 by criteria of Test Example 1
Outline: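 Read-out: herbicidal effect on each species rated on a visual scale 3 weeks after treatment. Plants were raised together from seed in flooded alluvial soil (4 cm water) at 25° C. to 30° C. and treated at one to two leaves by water-surface application of diluted emulsion.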

Digitaria ciliaris = assay: Test Example 4: herbicidal effect by soil treatment (symbol F)
Outline: (§1)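 Seeds were sown in sterilized diluvial soil, covered with about 1.5 cm of soil, and the soil surface was sprayed with a water-diluted emulsion of the compound at a predetermined rate. Plants grew in a greenhouse at 25° C. to 30° C.; effects were scored visually 3 weeks after application.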

Alopecurus myosuroides [1] = assay: Test Example 4: herbicidal effect by soil treatment (symbol J)
Outline: as §1

Galium spurium = assay: Test Example 4: herbicidal effect by soil treatment (symbol Q)
Outline: as §1

Veronica persica [2] = assay: Test Example 4: herbicidal effect by soil treatment (symbol R)
Outline: as §1

corn [3] = assay: Test Example 4: effect on crop by soil treatment (symbol c)
Outline: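 Steps: fill box with sterilized diluvial soil; sow seed spot-like; cover with ~1.5 cm soil; grow in greenhouse (25° C. to 30° C.).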

rice = assay: Test Example 4: effect on crop by soil treatment (symbol b)
Outline: (§2)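 Grown at 25° C. to 30° C. in a greenhouse, the crops came from seed sown spot-wise in sterilized diluvial soil under roughly 1.5 cm of covering soil.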

rapeseed = assay: Test Example 4: effect on crop by soil treatment (symbol g)
Outline: as §2

Alopecurus myosuroides [4] = assay: Test Example 5: herbicidal effect by foliage application, plastic box (symbol J); details: 320 g/ha, 3 weeks after application
Outline: (§3)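 After sowing into sterilized diluvial soil and growing two weeks under glass at 25° C. to 30° C., seedlings receive a uniform foliar spray of diluted emulsion. Damage is judged visually three weeks on.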

Lolium multiflorum Lam. = assay: Test Example 5: herbicidal effect by foliage application, plastic box (symbol K); details: 320 g/ha, 3 weeks after application
Outline: as §3

Veronica persica [5] = assay: Test Example 5: herbicidal effect by foliage application, plastic box (symbol R); details: 320 g/ha, 3 weeks after application
Outline: as §3

corn [6] = assay: Test Example 5: effect on crop by foliage application, plastic box (symbol c); details: 320 g/ha, 3 weeks after application
Outline: (§4)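 Greenhouse culture at 25° C. to 30° C. followed spot-like sowing into sterilized diluvial soil, with seed covered by roughly 1.5 cm of soil.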

wheat = assay: Test Example 5: effect on crop by foliage application, plastic box (symbol e); details: 320 g/ha, 3 weeks after application
Outline: as §4

beet = assay: Test Example 5: effect on crop by foliage application, plastic box (symbol f); details: 320 g/ha, 3 weeks after application
Outline: as §4

[7] = application herbicide amount 320 g/ha

`CON=C(C)CC1CC(O)=C(c2c(C)cc(C#CCO)cc2C)C1=O` (mixture of isomers) [6-025] was tested, and the “Effect grade on crop, a: transplanted rice plant” value (transplanted rice plant) was 3 (Herbicidal ratio of 40% or higher and lower than 70%), the “Herbicidal effect grade, B: Scirpus juncoides” value (Scirpus juncoides) was 0 (Herbicidal ratio of 5% or lower (almost no effect)) and the “F: Digitaria ciliaris, herbicidal effect grade” value (Digitaria ciliaris; [7]) was 3 (Herbicidal ratio of 40% or higher and lower than 70%). The “J: Alopecurus myosuroides, herbicidal effect grade” value (Alopecurus myosuroides [1]; [7]) was 2 (Herbicidal ratio of 20% or higher and lower than 40%), the “Q: Galium spurium, herbicidal effect grade” value (Galium spurium; [7]) was 0 (Herbicidal ratio of 5% or lower (almost no effect)) and the “R: Veronica persica, herbicidal effect grade” value (Veronica persica [2]; [7]) was 0 (Herbicidal ratio of 5% or lower (almost no effect)). The “c: corn, effect on crop grade” value (corn [3]; [7]) was 0 (Herbicidal ratio of 5% or lower (almost no effect)), the “b: directly sowed rice plant, effect on crop grade” value (rice; [7]) was 5 (Herbicidal ratio of 90% or more (almost completely withered)) and the “g: rapeseed, effect on crop grade” value (rapeseed; [7]) was 0 (Herbicidal ratio of 5% or lower (almost no effect)). The “J: Alopecurus myosuroides, herbicidal effect grade” value (Alopecurus myosuroides [4]) was 5 (Herbicidal ratio of 90% or more (almost completely withered)), the “K: Lolium multiflorum Lam., herbicidal effect grade” value (Lolium multiflorum Lam.) was 5 (Herbicidal ratio of 90% or more (almost completely withered)) and the “R: Veronica persica, herbicidal effect grade” value (Veronica persica [5]) was 0 (Herbicidal ratio of 5% or lower (almost no effect)). The “c: corn, effect on crop grade” value (corn [6]) was 4 (Herbicidal ratio of 70% or higher and lower than 90%), the “e: wheat, effect on crop grade” value (wheat) was 1 (Herbicidal ratio of 5% or higher and lower than 20%) and the “f: beet, effect on crop grade” value (beet) was 0 (Herbicidal ratio of 5% or lower (almost no effect)).

In the case of `CON=C(C)CC1CC(OS(=O)(=O)C2CC2)=C(c2c(C)cc(C)cc2C)C1=O` (stereo not drawn) [1-143], the “Effect grade on crop, a: transplanted rice plant” value (transplanted rice plant) is reported as 5 (Herbicidal ratio of 90% or more (almost completely withered)), the “Herbicidal effect grade, B: Scirpus juncoides” value (Scirpus juncoides) is reported as 4 (Herbicidal ratio of 70% or higher and lower than 90%) and the “F: Digitaria ciliaris, herbicidal effect grade” value (Digitaria ciliaris; 320 g/ha) is reported as 1 (Herbicidal ratio of 5% or higher and lower than 20%). The “J: Alopecurus myosuroides, herbicidal effect grade” value (Alopecurus myosuroides [1]; 320 g/ha) was 2 (Herbicidal ratio of 20% or higher and lower than 40%), the “Q: Galium spurium, herbicidal effect grade” value (Galium spurium; 320 g/ha) was 0 (Herbicidal ratio of 5% or lower (almost no effect)) and the “R: Veronica persica, herbicidal effect grade” value (Veronica persica [2]; 320 g/ha) was 0 (Herbicidal ratio of 5% or lower (almost no effect)). The “c: corn, effect grade on crop” value (corn [3]; 320 g/ha) was 0 (Herbicidal ratio of 5% or lower (almost no effect)), the “b: directly sowed rice plant, effect grade on crop” value (rice; 320 g/ha) was 0 (Herbicidal ratio of 5% or lower (almost no effect)) and the “g: rapeseed, effect grade on crop” value (rapeseed; 320 g/ha) was 0 (Herbicidal ratio of 5% or lower (almost no effect)). For the same compound, the “J: Alopecurus myosuroides, herbicidal effect (criteria 0-5)” value (Alopecurus myosuroides [4]) was 5 (Herbicidal ratio of 90% or more (almost completely withered)), the “K: Lolium multiflorum Lam., herbicidal effect (criteria 0-5)” value (Lolium multiflorum Lam.) was 5 (Herbicidal ratio of 90% or more (almost completely withered)) and the “R: Veronica persica, herbicidal effect (criteria 0-5)” value (Veronica persica [5]) was 0 (Herbicidal ratio of 5% or lower (almost no effect)). The “c: corn, effect on crop (criteria 0-5)” value (corn [6]) was 3 (Herbicidal ratio of 40% or higher and lower than 70%), the “e: wheat, effect on crop (criteria 0-5)” value (wheat) was 3 (Herbicidal ratio of 40% or higher and lower than 70%) and the “f: beet, effect on crop (criteria 0-5)” value (beet) was 0 (Herbicidal ratio of 5% or lower (almost no effect)).

From patent publication US11000033B2, “Ketone or oxime compound, and herbicide” (NISSAN CHEMICAL CORPORATION, priority 2014, dated 2021)
